Common to all, as to assay type: in vivo
The subject of assay [1] is houseflies (Musca domestica). As to conditions: after 4 hours. The source says:
1 mm^3 of an acetonic solution of the active ingredients is applied to the ventral abdomen of houseflies (Musca domestica) under slight CO2 narcosis.

Assay [2] relates to caterpillars of the cabbage moth (Plutella maculipennis). The assay can be described thus: Contact action and effect of ingested food on caterpillars of the cabbage moth (dipped cabbage leaves). The following applies: for Mortality (in words): 0.1% by weight of ingredient in aqueous emulsion. The text has this: Contact action and effect of ingested food on caterpillars of the cabbage moth (Plutella maculipennis). Young cabbage leaves are dipped for 3 seconds into aqueous emulsions of the active ingredients. After they have dried they are put into Petri dishes and caterpillars of the cabbage moth are placed on them.

Assay [3] has as its system oriental cockroaches (Blatta orientalis). The assay can be described thus: Contact with treated inner surfaces of 1 liter glass beakers, adult oriental cockroaches. The method, then:
Adult oriental cockroaches (Blatta orientalis) are placed in 1 liter glass beakers whose inner surfaces have been treated with acetonic solutions of the active ingredients. The action is determined after 48 hours.

With `CNC(=O)Oc1ccccc1OC(C)C` [III], in assay [1], the LD50 is 1.5 γ/fly. Moreover, the “Mortality (in words)” value in assay [2] was “ineffective”.
Consider `CNC(=O)Oc1ccccc1OC(CCl)OC` (stereo not drawn) [Active ingredient 1, o-(α-methoxy-β-chloro)-ethoxyphenyl-N-methylcarbamate], for which the LD50 in assay [1] is recorded as 0.41 γ/fly. Besides, the mortality at 0.05 mg in assay [3] (48 h) stood at 100%. The same compound registered a mortality at 0.05 % in assay [2] (Plutella) of 100%.
Consider “o-(α-2-chloroethoxy)-ethoxyphenyl-N-methylcarbamate [Example 2]”, for which, in assay [1], the LD50 is given as 0.3 γ/fly.
The compound `CNC(=O)Oc1cccc2ccccc12` [I] displayed a mortality at 0.2 mg in assay [3] (48 h) of 100%. In assay [2] (Plutella), the mortality at 0.1 % was found to be 100%.
For the compound `CCOC(CCl)Oc1ccccc1OC(=O)NC` (stereo not drawn) [compound 6], the mortality at 0.02 % in assay [2] (Plutella) came to 100%.
For the compound `CNC(=O)Oc1cccc(C)c1` [II], in assay [1] (10.0 γ/fly), the “Effect on flies (LD50 column, in words)” value is “ineffective”. The same compound returned a mortality at 0.5 mg in assay [3] (0.5 mg/breaker, after 48 hours) of 100%. Further, in assay [2], the “Mortality (in words)” value is “ineffective”.

By mortality is commonly meant the share of the test organisms that died. Low values mean a weak lethal effect, high ones a strong lethal effect.

(Values after US3962316A, “Carbamate” (priority 1972, dated 1976).)
